Drawing on ChEMBL document CHEMBL5625252, “Synthesis of peptidomimetics as antibiotic adjuvants for combination with aztreonam to combat MDR Pseudomonas aeruginosa” (Eur J Med Chem, 2023), this text covers MIC for 13 compounds.

What all share (format): functional
For test [1], the system named is Pseudomonas aeruginosa. The experiment in a line: Synergistic antibacterial activity against Pseudomonas aeruginosa PAO1 assessed as aztreonam MIC upto […] ug/ml incubated for 18 hrs by checkerboard method (reference value: 8 microg/ml).
The test system of test [2] is Pseudomonas aeruginosa. The test is described as follows: Antibacterial activity against Pseudomonas aeruginosa PAO1 assessed as inhibition of bacterial growth incubated for 18 hrs by agar dilution method. (In agar dilution the substance is mixed into plates at graded concentrations.)
Test [3] concerns Pseudomonas aeruginosa. The experiment in a line: Antibacterial activity against Pseudomonas aeruginosa 16-11 assessed as inhibition of bacterial growth incubated for 18 hrs by agar dilution method.
Test [4] has as its system Pseudomonas aeruginosa. The test is described as follows: Antibacterial activity against Pseudomonas aeruginosa 21-8 assessed as inhibition of bacterial growth incubated for 18 hrs by agar dilution method.
Test [5] concerns Pseudomonas aeruginosa. The test is described as follows: Antibacterial activity against Pseudomonas aeruginosa 13-35 assessed as inhibition of bacterial growth incubated for 18 hrs by agar dilution method.
Test [6] relates to Pseudomonas aeruginosa. The experiment in a line: Antibacterial activity against Pseudomonas aeruginosa 23-Y122 assessed as inhibition of bacterial growth incubated for 18 hrs by agar dilution method.
In test [7] the test system is Pseudomonas aeruginosa. The experiment in a line: Antibacterial activity against Pseudomonas aeruginosa 23-Y372 assessed as inhibition of bacterial growth incubated for 18 hrs by agar dilution method.
Test [8] deals with Pseudomonas aeruginosa. The experiment in a line: Antibacterial activity against Pseudomonas aeruginosa 23-Y417 assessed as inhibition of bacterial growth incubated for 18 hrs by agar dilution method. The following applies: read-out: MIC.
Test [9] has as its system Pseudomonas aeruginosa. The experiment in a line: Antibacterial activity against Pseudomonas aeruginosa 23-Y511 assessed as inhibition of bacterial growth incubated for 18 hrs by agar dilution method.
Test [10] deals with Pseudomonas aeruginosa. The experiment in a line: Antibacterial activity against Pseudomonas aeruginosa 12-1 assessed as inhibition of bacterial growth incubated for 18 hrs by agar dilution method.
The subject of test [11] is Pseudomonas aeruginosa. The experiment in a line: Antibacterial activity against Pseudomonas aeruginosa 13-3 assessed as inhibition of bacterial growth incubated for 18 hrs by agar dilution method.
The subject of test [12] is Pseudomonas aeruginosa. The experiment in a line: Antibacterial activity against Pseudomonas aeruginosa 13-17 assessed as inhibition of bacterial growth incubated for 18 hrs by agar dilution method.
Test [13] relates to Pseudomonas aeruginosa. The experiment in a line: Antibacterial activity against Pseudomonas aeruginosa 16-2 assessed as inhibition of bacterial growth incubated for 18 hrs by agar dilution method.
In test [14] the test system is Pseudomonas aeruginosa. The experiment in a line: Antibacterial activity against Pseudomonas aeruginosa 21-2 assessed as inhibition of bacterial growth incubated for 18 hrs by agar dilution method.
In test [15] the test system is Pseudomonas aeruginosa. The experiment in a line: Antibacterial activity against Pseudomonas aeruginosa 23-Y539 assessed as inhibition of bacterial growth incubated for 18 hrs by agar dilution method.
Test [16] deals with Pseudomonas aeruginosa. The experiment in a line: Antibacterial activity against Pseudomonas aeruginosa 19-46 assessed as inhibition of bacterial growth incubated for 18 hrs by agar dilution method.
In test [17] the test system is Pseudomonas aeruginosa. The experiment in a line: Antibacterial activity against Pseudomonas aeruginosa 19-55 assessed as inhibition of bacterial growth incubated for 18 hrs by agar dilution method.
The subject of test [18] is Pseudomonas aeruginosa. The experiment in a line: Antibacterial activity against Pseudomonas aeruginosa 21-7 assessed as inhibition of bacterial growth incubated for 18 hrs by agar dilution method.
Test [19] relates to Pseudomonas aeruginosa. The experiment in a line: Antibacterial activity against Pseudomonas aeruginosa 23-Y364 assessed as inhibition of bacterial growth incubated for 18 hrs by agar dilution method.
Test [20] has as its system Escherichia coli. The experiment in a line: Antibacterial activity against ESBLs (-) Escherichia coli ATCC 25922 assessed as inhibition of bacterial growth incubated for 18 hrs by agar dilution method.
For test [21], the system named is Escherichia coli. The experiment in a line: Antibacterial activity against NDM-1 (+) Escherichia coli CDC 1001728 assessed as inhibition of bacterial growth incubated for 18 hrs by agar dilution method.
For test [22], the system named is Escherichia coli. The test is described as follows: Antibacterial activity against ESBLs (+) Escherichia coli 16-1 assessed as inhibition of bacterial growth incubated for 18 hrs by agar dilution method.
The subject of test [23] is Escherichia coli. The experiment in a line: Antibacterial activity against mcr-1 (+) Escherichia coli 08-85 assessed as inhibition of bacterial growth incubated for 18 hrs by agar dilution method.
The test system of test [24] is Klebsiella pneumoniae. The test is described as follows: Antibacterial activity against ESBLs (+) Klebsiella pneumoniae ATCC 700603 assessed as inhibition of bacterial growth incubated for 18 hrs by agar dilution method.
Test [25] concerns Klebsiella pneumoniae. The test is described as follows: Antibacterial activity against NDM-1 (+) Klebsiella pneumoniae 2146 assessed as inhibition of bacterial growth incubated for 18 hrs by agar dilution method.
For test [26], the system named is Klebsiella pneumoniae. The experiment in a line: Antibacterial activity against ESBLs (+) Klebsiella pneumoniae 16-14 assessed as inhibition of bacterial growth incubated for 18 hrs by agar dilution method.
For test [27], the system named is Klebsiella pneumoniae. The experiment in a line: Antibacterial activity against NDM-1 (+) Klebsiella pneumoniae 09-20 assessed as inhibition of bacterial growth incubated for 18 hrs by agar dilution method.
Test [28] has as its system Pseudomonas aeruginosa. The test is described as follows: Antibacterial activity against BL (+) Pseudomonas aeruginosa ATCC 27853 assessed as inhibition of bacterial growth incubated for 18 hrs by agar dilution method.

In brackets after ≈: the same amount, converted by molar mass. Where only a bound is given, the exact number is not on record here.

Turning to `NCCC[C@H](NC(=O)CCc1ccc([N+](=O)[O-])cc1)C(=O)Nc1ccc2ccccc2c1`, the MIC in the test on Pseudomonas aeruginosa [1] worked out at 8 µg/mL.
Take `NCCC[C@H](NC(=O)c1ccc2ccccc2c1)C(=O)N[C@@H](CCc1ccccc1)C(=O)O`: the minimum inhibitory concentration (MIC) in the test with Pseudomonas aeruginosa [1] is 8 µg/mL.
For `NCCC[C@H](NC(=O)CCc1ccc(C(F)(F)F)cc1)C(=O)Nc1ccc2ccccc2c1`, the MIC in the test on Pseudomonas aeruginosa [1] is 8 µg/mL.
Consider `C[C@@H](O)[C@H]1C(=O)N2C(C(=O)O)=C(SCCNC=N)C[C@H]12` [IMIPENEM ANHYDROUS], for which the MIC with Pseudomonas aeruginosa [2] is 8 µg/mL (≈ 26.7 µM); in the test on Pseudomonas aeruginosa [3], 1 µg/mL (≈ 3.34 µM); in the test with Pseudomonas aeruginosa [4] it was 1 µg/mL (≈ 3.34 µM); in the test with Pseudomonas aeruginosa [5], 32 µg/mL (≈ 107 µM); in the test on Pseudomonas aeruginosa [6], 4 µg/mL (≈ 13.4 µM); in the test with Pseudomonas aeruginosa [7] it was 128 µg/mL (≈ 428 µM). The minimal inhibitory concentration (MIC) was found to be 16 µg/mL (≈ 53.4 µM) with Pseudomonas aeruginosa [8]; 0.5 µg/mL (≈ 1.67 µM) in the test with Pseudomonas aeruginosa [9]; 64 µg/mL (≈ 214 µM) with Pseudomonas aeruginosa [10]; 64 µg/mL (≈ 214 µM) in the test on Pseudomonas aeruginosa [11]; 32 µg/mL (≈ 107 µM) in the test with Pseudomonas aeruginosa [12]; 32 µg/mL (≈ 107 µM) in the test on Pseudomonas aeruginosa [13]. Also, the MIC was 16 µg/mL (≈ 53.4 µM) with Pseudomonas aeruginosa [14]; 8 µg/mL (≈ 26.7 µM) with Pseudomonas aeruginosa [15]; 32 µg/mL (≈ 107 µM) in the test on Pseudomonas aeruginosa [16]; 32 µg/mL (≈ 107 µM) with Pseudomonas aeruginosa [17]; 16 µg/mL (≈ 53.4 µM) in the test on Pseudomonas aeruginosa [18]; 16 µg/mL (≈ 53.4 µM) with Pseudomonas aeruginosa [19].
As to `NCCC[C@H](NC(=O)CCc1ccc(Cl)cc1)C(=O)Nc1ccc2ccccc2c1`, the MIC with Pseudomonas aeruginosa [1] was 8 µg/mL.
For `C[C@H]1[C@H](NC(=O)/C(=N\OC(C)(C)C(=O)N2CCC[C@@H]2C(=O)O)c2csc(N)n2)C(=O)N1S(=O)(=O)O`, the MIC with Escherichia coli [20] is 2 µg/mL (≈ 3.76 µM); in the test on Escherichia coli [21], 64 µg/mL (≈ 120 µM); with Escherichia coli [22], 1 µg/mL (≈ 1.88 µM); in the test on Escherichia coli [23], more than 64 µg/mL; with Klebsiella pneumoniae [24], more than 64 µg/mL; with Klebsiella pneumoniae [25], more than 64 µg/mL. The MIC was more than 64 µg/mL in the test on Klebsiella pneumoniae [26], 16 µg/mL (≈ 30 µM) with Klebsiella pneumoniae [27], 32 µg/mL (≈ 60.1 µM) with Pseudomonas aeruginosa [28] and 8 µg/mL (≈ 15 µM) in the test on Pseudomonas aeruginosa [2].
In the case of `NCCC[C@H](NC(=O)C[C@H](N)c1ccccc1)C(=O)Nc1ccc2ccccc2c1`, the MIC with Pseudomonas aeruginosa [1] is 8 µg/mL.
Regarding `C=CCO/N=C(\C(=O)N[C@@H]1C(=O)N(S(=O)(=O)O)[C@H]1C)c1nsc(N)n1`, the minimum inhibitory concentration (MIC) with Escherichia coli [20] was 8 µg/mL (≈ 20.5 µM); with Escherichia coli [21], 64 µg/mL (≈ 164 µM); with Escherichia coli [22], 16 µg/mL (≈ 41 µM); in the test on Escherichia coli [23] it was more than 64 µg/mL; with Klebsiella pneumoniae [24], more than 64 µg/mL; in the test with Klebsiella pneumoniae [25] it was more than 64 µg/mL. Moreover, the MIC was more than 64 µg/mL with Klebsiella pneumoniae [26], more than 64 µg/mL in the test with Klebsiella pneumoniae [27], more than 64 µg/mL in the test with Pseudomonas aeruginosa [28] and 64 µg/mL (≈ 164 µM) in the test with Pseudomonas aeruginosa [2].
Take `NCCC[C@H](NCc1ccc2ccccc2c1)C(=O)N[C@@H](CCc1ccccc1)C(=O)O`: the minimum inhibitory concentration (MIC) in the test on Pseudomonas aeruginosa [1] was 8 µg/mL.
As to POLYMYXIN B, the MIC in the test on Escherichia coli [20] turned out to be 1 µg/mL; in the test on Escherichia coli [21] it was 1 µg/mL; in the test on Escherichia coli [22] it was 0.25 µg/mL; in the test with Escherichia coli [23], 8 µg/mL; in the test on Klebsiella pneumoniae [24], 2 µg/mL; in the test on Klebsiella pneumoniae [25], 1 µg/mL. Further, the MIC in the test on Klebsiella pneumoniae [26] came to 1 µg/mL; with Klebsiella pneumoniae [27], 16 µg/mL; in the test with Pseudomonas aeruginosa [28] it was 4 µg/mL; in the test on Pseudomonas aeruginosa [2] it was 8 µg/mL.
For the compound `C[C@H]1[C@H](NC(=O)/C(=N\OCC(=O)N2CCC(C(=O)O)CC2)c2csc(N)n2)C(=O)N1S(=O)(=O)O`, the minimum inhibitory concentration (MIC) was 4 µg/mL (≈ 7.71 µM) in the test with Escherichia coli [20]; 16 µg/mL (≈ 30.9 µM) in the test on Escherichia coli [21]; 16 µg/mL (≈ 30.9 µM) in the test with Escherichia coli [22]; more than 64 µg/mL in the test with Escherichia coli [23]; more than 64 µg/mL in the test with Klebsiella pneumoniae [24]; more than 64 µg/mL in the test with Klebsiella pneumoniae [25]. Besides, the minimum inhibitory concentration (MIC) with Klebsiella pneumoniae [26], in the test on Klebsiella pneumoniae [27], in the test with Pseudomonas aeruginosa [28] and in the test on Pseudomonas aeruginosa [2] was more than 64 µg/mL in each case.
In the case of `C[C@H]1[C@H](NC(=O)/C(=N\OCCN)c2nsc(N)n2)C(=O)N1S(=O)(=O)O`, the minimum inhibitory concentration (MIC) in the test with Escherichia coli [20] was 32 µg/mL (≈ 81.3 µM); in the test on Escherichia coli [21] it was 16 µg/mL (≈ 40.7 µM); with Escherichia coli [22], 16 µg/mL (≈ 40.7 µM); in the test with Escherichia coli [23], more than 64 µg/mL; with Klebsiella pneumoniae [24], 32 µg/mL (≈ 81.3 µM); in the test on Klebsiella pneumoniae [25], 32 µg/mL (≈ 81.3 µM). The MIC in the test on Klebsiella pneumoniae [26] is more than 64 µg/mL; in the test on Klebsiella pneumoniae [27], 64 µg/mL (≈ 163 µM); in the test with Pseudomonas aeruginosa [28], more than 64 µg/mL; in the test on Pseudomonas aeruginosa [2], more than 64 µg/mL.
On to `CC(C)(O/N=C(\C(=O)N[C@@H]1C(=O)N2C(C(=O)[O-])=C(C[n+]3ccccc3)CS[C@H]12)c1csc(N)n1)C(=O)O` [CEFTAZIDIME], for which the MIC is 2 µg/mL (≈ 3.66 µM) in the test with Pseudomonas aeruginosa [2]; more than 256 µg/mL in the test on Pseudomonas aeruginosa [3]; 1 µg/mL (≈ 1.83 µM) in the test with Pseudomonas aeruginosa [4]; 16 µg/mL (≈ 29.3 µM) in the test on Pseudomonas aeruginosa [5]; 256 µg/mL (≈ 468 µM) with Pseudomonas aeruginosa [6]; more than 256 µg/mL in the test with Pseudomonas aeruginosa [7]. Moreover, the MIC with Pseudomonas aeruginosa [8] was found to be 4 µg/mL (≈ 7.32 µM); in the test with Pseudomonas aeruginosa [9], 1 µg/mL (≈ 1.83 µM); in the test on Pseudomonas aeruginosa [10], 64 µg/mL (≈ 117 µM); in the test on Pseudomonas aeruginosa [11], 64 µg/mL (≈ 117 µM); with Pseudomonas aeruginosa [12] it was 64 µg/mL (≈ 117 µM); in the test on Pseudomonas aeruginosa [13], 128 µg/mL (≈ 234 µM). Also, the MIC was 64 µg/mL (≈ 117 µM) in the test with Pseudomonas aeruginosa [14]; 32 µg/mL (≈ 58.5 µM) in the test with Pseudomonas aeruginosa [15]; 128 µg/mL (≈ 234 µM) in the test with Pseudomonas aeruginosa [16]; 128 µg/mL (≈ 234 µM) in the test on Pseudomonas aeruginosa [17]; more than 256 µg/mL in the test on Pseudomonas aeruginosa [18]; 64 µg/mL (≈ 117 µM) in the test on Pseudomonas aeruginosa [19].

Broadly, the MIC is the smallest concentration in the dilution series that meets the test's criterion for growth inhibition.
